Test results: ChEMBL document CHEMBL5705888, “Substrate specificity and inhibitors of LRRK2, a protein kinase mutated in Parkinson's disease” (Biochem J, 2009)

Key:
[1] = biological target: Leucine-rich repeat serine/threonine-protein kinase 2 (Homo sapiens, UniProt Q5S007); experiment: Inhibition of GST-tagged LRRK2 (1326 to 2527 residues) (unknown origin) using peptide as substrate incubated for 15 mins in presence of ATP by immunoblotting analysis
[2] = biological target: Leucine-rich repeat serine/threonine-protein kinase 2 (Homo sapiens, UniProt Q5S007, G2019S); experiment: Inhibition of GST-tagged LRRK2 G2019S mutant (1326 to 2527 residues) (unknown origin) using peptide as substrate incubated for 15 mins in presence of ATP by immunoblotting analysis
[3] = biological target: Rho-associated protein kinase 2 (Homo sapiens, UniProt O75116); experiment: Inhibition of His6-tagged ROCK2 (2 to 543 residues) (unknown origin) using peptide as substrate incubated for 15 mins in presence of ATP by immunoblotting analysis
Sequence of Rho-associated protein kinase 2 (O75116 whole entry, the tested form may be a part): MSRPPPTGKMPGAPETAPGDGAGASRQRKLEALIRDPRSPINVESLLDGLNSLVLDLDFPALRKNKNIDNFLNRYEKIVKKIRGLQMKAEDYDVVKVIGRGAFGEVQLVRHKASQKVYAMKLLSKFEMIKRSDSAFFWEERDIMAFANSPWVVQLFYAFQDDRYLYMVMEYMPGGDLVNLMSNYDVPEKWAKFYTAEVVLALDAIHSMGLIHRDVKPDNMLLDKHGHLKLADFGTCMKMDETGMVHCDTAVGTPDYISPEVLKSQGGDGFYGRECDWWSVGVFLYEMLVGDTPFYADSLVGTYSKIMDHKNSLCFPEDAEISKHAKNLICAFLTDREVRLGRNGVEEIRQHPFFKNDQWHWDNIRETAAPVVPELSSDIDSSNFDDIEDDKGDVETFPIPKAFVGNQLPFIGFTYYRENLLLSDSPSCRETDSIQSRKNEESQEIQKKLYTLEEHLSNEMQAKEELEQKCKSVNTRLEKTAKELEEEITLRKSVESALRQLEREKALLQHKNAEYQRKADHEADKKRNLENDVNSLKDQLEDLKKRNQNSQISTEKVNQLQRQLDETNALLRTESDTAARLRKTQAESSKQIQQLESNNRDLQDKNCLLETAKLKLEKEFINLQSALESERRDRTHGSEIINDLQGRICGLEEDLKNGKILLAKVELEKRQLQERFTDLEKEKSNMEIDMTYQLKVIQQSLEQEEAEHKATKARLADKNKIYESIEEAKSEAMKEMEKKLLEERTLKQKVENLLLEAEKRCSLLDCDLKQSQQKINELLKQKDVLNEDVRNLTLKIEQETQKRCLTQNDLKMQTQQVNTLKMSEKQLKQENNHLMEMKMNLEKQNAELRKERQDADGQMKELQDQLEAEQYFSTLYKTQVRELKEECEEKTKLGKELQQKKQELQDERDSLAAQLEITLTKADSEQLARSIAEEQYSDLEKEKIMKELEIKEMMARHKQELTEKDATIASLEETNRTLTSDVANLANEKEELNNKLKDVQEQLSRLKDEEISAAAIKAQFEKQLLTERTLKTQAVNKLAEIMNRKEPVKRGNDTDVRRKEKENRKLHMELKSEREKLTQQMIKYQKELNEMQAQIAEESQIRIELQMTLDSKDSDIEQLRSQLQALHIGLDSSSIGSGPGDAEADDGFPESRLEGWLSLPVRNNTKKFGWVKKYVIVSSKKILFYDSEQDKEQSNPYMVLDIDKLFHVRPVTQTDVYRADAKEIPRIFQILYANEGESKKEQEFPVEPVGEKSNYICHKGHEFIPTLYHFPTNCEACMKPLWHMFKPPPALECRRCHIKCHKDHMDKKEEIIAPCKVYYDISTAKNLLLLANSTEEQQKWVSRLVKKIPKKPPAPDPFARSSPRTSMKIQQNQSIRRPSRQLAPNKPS

Sequence of Leucine-rich repeat serine/threonine-protein kinase 2 (Homo sapiens, UniProt Q5S007, G2019S) (Q5S007 whole entry G2019S, the tested form may be a part): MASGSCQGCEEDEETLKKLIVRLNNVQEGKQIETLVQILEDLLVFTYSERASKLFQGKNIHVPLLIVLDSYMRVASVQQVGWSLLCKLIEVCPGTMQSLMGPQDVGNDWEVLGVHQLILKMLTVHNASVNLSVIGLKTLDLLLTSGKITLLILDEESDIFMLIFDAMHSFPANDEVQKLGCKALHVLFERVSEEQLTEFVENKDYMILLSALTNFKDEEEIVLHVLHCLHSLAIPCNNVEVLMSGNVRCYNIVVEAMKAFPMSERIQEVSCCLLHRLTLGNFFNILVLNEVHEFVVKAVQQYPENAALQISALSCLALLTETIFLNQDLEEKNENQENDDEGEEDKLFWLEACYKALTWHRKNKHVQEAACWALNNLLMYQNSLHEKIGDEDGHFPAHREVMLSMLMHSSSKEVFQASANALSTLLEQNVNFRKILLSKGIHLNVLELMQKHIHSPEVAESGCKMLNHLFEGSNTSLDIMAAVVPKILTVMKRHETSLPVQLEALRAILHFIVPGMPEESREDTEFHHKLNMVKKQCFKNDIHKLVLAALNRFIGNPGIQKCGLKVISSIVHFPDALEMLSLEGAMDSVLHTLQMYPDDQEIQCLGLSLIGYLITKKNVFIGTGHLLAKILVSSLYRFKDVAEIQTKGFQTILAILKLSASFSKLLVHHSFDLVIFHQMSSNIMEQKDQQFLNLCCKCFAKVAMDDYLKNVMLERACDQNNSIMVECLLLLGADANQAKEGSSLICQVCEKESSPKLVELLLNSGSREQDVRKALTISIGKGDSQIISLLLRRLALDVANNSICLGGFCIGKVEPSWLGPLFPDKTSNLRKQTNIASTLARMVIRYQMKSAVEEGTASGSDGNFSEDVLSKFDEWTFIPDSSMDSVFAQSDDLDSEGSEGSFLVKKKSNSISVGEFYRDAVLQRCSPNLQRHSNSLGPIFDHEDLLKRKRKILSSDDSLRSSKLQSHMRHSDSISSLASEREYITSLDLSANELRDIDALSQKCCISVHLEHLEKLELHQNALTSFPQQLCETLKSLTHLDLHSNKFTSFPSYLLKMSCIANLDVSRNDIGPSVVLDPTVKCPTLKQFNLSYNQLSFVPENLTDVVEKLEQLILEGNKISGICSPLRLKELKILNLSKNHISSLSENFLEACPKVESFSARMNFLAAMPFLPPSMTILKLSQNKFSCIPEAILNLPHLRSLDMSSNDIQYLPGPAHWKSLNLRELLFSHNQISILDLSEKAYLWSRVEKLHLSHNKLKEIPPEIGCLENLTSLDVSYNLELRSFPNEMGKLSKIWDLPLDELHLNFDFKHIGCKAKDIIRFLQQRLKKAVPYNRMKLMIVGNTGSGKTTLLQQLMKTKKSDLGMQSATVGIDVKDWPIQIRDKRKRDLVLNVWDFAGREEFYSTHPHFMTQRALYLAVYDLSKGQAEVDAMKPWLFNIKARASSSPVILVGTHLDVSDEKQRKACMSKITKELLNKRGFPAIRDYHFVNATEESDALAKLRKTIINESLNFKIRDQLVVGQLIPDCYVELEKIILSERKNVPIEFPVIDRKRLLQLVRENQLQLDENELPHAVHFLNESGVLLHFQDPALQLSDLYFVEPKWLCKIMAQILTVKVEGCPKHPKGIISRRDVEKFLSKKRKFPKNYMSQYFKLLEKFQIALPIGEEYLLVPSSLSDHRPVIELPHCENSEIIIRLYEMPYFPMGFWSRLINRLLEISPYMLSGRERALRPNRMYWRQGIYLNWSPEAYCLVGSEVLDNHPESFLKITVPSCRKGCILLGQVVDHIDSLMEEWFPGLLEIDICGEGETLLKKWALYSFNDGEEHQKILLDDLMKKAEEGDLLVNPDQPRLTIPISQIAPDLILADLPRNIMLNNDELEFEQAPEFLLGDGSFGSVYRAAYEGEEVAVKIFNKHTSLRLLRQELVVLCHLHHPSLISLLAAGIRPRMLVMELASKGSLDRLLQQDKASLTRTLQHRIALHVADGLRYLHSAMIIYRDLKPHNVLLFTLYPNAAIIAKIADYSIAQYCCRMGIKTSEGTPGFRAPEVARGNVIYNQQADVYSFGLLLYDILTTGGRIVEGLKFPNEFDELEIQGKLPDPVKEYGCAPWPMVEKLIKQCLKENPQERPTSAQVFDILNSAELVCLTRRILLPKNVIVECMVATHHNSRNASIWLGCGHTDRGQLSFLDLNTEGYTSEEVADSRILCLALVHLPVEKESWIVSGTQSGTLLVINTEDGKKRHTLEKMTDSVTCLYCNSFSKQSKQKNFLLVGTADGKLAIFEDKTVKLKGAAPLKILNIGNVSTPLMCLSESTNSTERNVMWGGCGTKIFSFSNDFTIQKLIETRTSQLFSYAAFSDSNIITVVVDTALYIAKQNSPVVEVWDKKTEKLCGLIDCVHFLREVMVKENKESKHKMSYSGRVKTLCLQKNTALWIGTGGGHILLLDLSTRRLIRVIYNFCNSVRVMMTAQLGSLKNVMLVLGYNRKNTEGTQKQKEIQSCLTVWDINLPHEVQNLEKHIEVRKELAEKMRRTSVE
Sequence of Leucine-rich repeat serine/threonine-protein kinase 2 (Homo sapiens, UniProt Q5S007) (Q5S007 whole entry, the tested form may be a part): as the sequence (Q5S007 whole entry G2019S, the tested form may be a part) above, with S2019G counted along it

O=S(=O)(NCCNC/C=C/c1ccc(Br)cc1)Nc1cccc2cnccc12
IC50 [1]: > 10 µM | IC50 [2]: > 10 µM | IC50 [3]: 0.29 µM
